In patent US20060282906A1, “Non-transgenic rodent model of Alzheimer's disease” (priority 2005, published 2006):
Marks after values point to notes of the source that are not given here.

Experiments:
rats = assay: Barnes circular platform test; type: in vivo, rat
Experimental: All rats were anesthetized using 40 mg/kg of pentobarbital (Somnotol; MTC Pharmaceuticals, Cambridge, Ontario) intraperitoneally. Body temperature was maintained at 37° C. Aβ(25-35) (50 nmol in 10 μL of saline) was injected bilaterally into the lateral ventricles. Aβ(25-35) was prepared according to established methods (Sigurdsson, et al. (1997) supra). […] (1997) supra). […] After wound suture, all rats received […] of buprenorphine intramuscularly and were allowed to recover from surgery for 7 days. Learning and memory deficits were assessed using the Barnes circular platform. There are twenty holes evenly located along the border of circular platform with a hidden escape box beneath one of the holes. The circular platform is equipped with colored cues on the surrounding wall. A bright light combined with wind from a fan hung on the ceiling above the platform provides the incentive for the rats to find the hidden box and enter the escape hole. During each trial, the rats were initially placed in the center of the platform under an inverted box, then the box was lifted up and the rat is allowed to find the hole for up to 4 minutes. The latency (time to enter the escape hole) was recorded during the trial. There was a training period (trials 1-14) performed at day −7 to day −1 before surgery (day 0). PDTC or vehicle treatment was given 30 minutes before Aβ(25-35) injections and from days 1 to 7 post-surgery. Spatial memory was then tested on day 8 (trial 15) with the escape hole placed in the same location. Spatial learning was examined by re-testing (re-acquisition) from days 9 to 15 (trials 16-29) with the escape box relocated at […] from the original location. Digital photographs were taken using a light microscope (Leitz Diaplan). […] Also, relative optical density measurements and numbers of stained cells or accumulations were measured in entire brain areas for quantitative analysis and statistically analyzed with ANOVA and Tukey post hoc test with a significance level of P<0.05. […] The staircase data are expressed as the mean±SEM. […] Data are expressed as mean±SEM. […]

Male Wistar rats [1] = assay: Immunohistochemistry of rat brain sections, grading scale of staining size and intensity; type: in vivo; design: key to Effect of Triflusal on NKκB(p65) immunostaining / Effect of Triflusal on COX-2 immunostaining / Effect of Triflusal on GFAP immunostaining / Effect of Triflusal on OX-6 immunostaining / Effect of Triflusal on APP immunostaining / Effect of Triflusal on Tau-2 immunostaining / Effect of Triflusal on TNFα immunostaining / Effect of Triflusal on Cas-3 immunostaining: −: no effect; ↓: moderate reduction; ↓↓: strong reduction
Experimental: (§1) Male Wistar rats (250 to 300 grams; Charles River, Montreal, Quebec) were divided into 4 groups: intracerebroventricular injections of Aβ(25-35) (BACHEM, Torrance, Calif.); endothelin injections into the right striatum; both Aβ(25-35) and striatal endothelin injections; and sham procedures. The Aβ(25-35) fragment was used to reduce the possibility of rapid coagulation and to allow diffusion of the peptide into the brain.
(§2) All rats were anesthetized using 40 mg/kg of pentobarbital (Somnotol; MTC Pharmaceuticals, Cambridge, Ontario) intraperitoneally. Body temperature was maintained at 37° C. Aβ(25-35) (50 nmol in 10 μL of saline) was injected bilaterally into the lateral ventricles. Aβ(25-35) was prepared according to established methods (Sigurdsson, et al. (1997) supra). Aβ(25-35) (50 nmol in 10 μL of saline at a rate of 1 μL/minute) was injected bilaterally into the lateral ventricles via a stainless-steel cannula (23-gauge; anterior/posterior −0.8, medial/lateral ±1.4, and dorsal/ventral −4.0 below dura). Two endothelin injections (6 pmol in 3 μL of saline), 1 mm apart, were made into the right striatum (Sigurdsson, et al. (1997) supra). Sham procedures involved all the surgical steps without injections of Aβ(25-35) or endothelin. After wound suture, all rats received 40 mg/kg of buprenorphine intramuscularly and were allowed to recover from surgery for 7 days.
(§3) Twenty-one days after surgery, all animals were euthanized via pentobarbital overdose and perfused transaortically first with saline followed by 4% formaldehyde (pH 7.4). The brains were removed and cryoprotected in 30% sucrose for 36 hours at 4° C. Coronal sections (30 pm) were cut using a cryostat.
(§4) Free-floating sections from rat brains (n=5 for each group) were treated with 0.03% hydrogen peroxide and blocked with 3 mL of horse or rabbit serum (VECTASTAIN® Elite, Vector Laboratories, Burlingame, Calif.). The following primary antibodies were diluted in filtered phosphate-buffered saline: APPa4 mouse monoclonal (Chemicon International Inc, Temecula, Calif.; 1:1000), GFAP mouse monoclonal (Sigma-Aldrich, St Louis, Mo.; 1:1000), OX-6 mouse monoclonal (Serotec, Inc., Raleigh, N.C.; 1:1000), Tau-2 mouse monoclonal (Sigma-Aldrich, St Louis, Mo.; 1:10000), NFκB(p65) goat polyclonal (Santa Cruz Biotechnologies, Santa Cruz, Calif.; 1:1000), IL-1β goat polyclonal (Santa Cruz Biotechnologies, Santa Cruz, Calif.; 1:1000), and TNF-α-M18 goat polyclonal (Santa Cruz Biotechnologies, Santa Cruz, Calif.; 1:1000). APP-, Tau-2-, GFAP-, and OX-6-stained sections were incubated with 3 mL of horse biotinylated anti-mouse secondary antibody and horse serum. NFκB(p65), IL-1β, and TNF-α-stained sections were incubated with 3 mL of biotinylated rabbit anti-goat secondary antibody and rabbit serum. Sections were then incubated in 3 mL of avidin-biotin complex followed by 0.05% diaminobenzidine. Sections were washed, air-dried, cleared in xylene, and cover-slipped. Brains to be compared were processed at the same time using the same solutions to reduce variability in immunostaining caused by separate processing.
(§5) Digital photographs were taken using a light microscope (Leitz Diaplan). An investigator was blinded to the identification of the rat sections while analysis was being performed. All immunohistochemical data that were compared was processed at the same time to reduce any variation caused by differences of intensity. A grading scale was based on both observable size and intensity of staining (n=5 for each group). Also, relative optical density measurements and numbers of stained cells or accumulations were measured in entire brain areas for quantitative analysis and statistically analyzed with ANOVA and Tukey post hoc test with a significance level of P<0.05.

Male Wistar rats [2] = assay: Quantitative immunohistochemistry: relative optical density and numbers of stained cells or accumulations; type: in vivo, rat; conditions: Trifusal treatment (brackets)
Experimental: as §1, §2, §3, §4, §5

[3] = Corpus Callosum, Aβ-Endothelin rats
[4] = Hippocampus, Aβ-Endothelin rats
[5] = Hypothalamus, Aβ-Endothelin rats
[6] = Striatum (right), Aβ-Endothelin rats
[7] = Striatum (right), Endothelin rats
[8] = Thalamus (right), Aβ-Endothelin rats
[9] = Thalamus (right), Endothelin rats
[10] = Left Hippocampus, Endothelin rats
[11] = Right Hippocampus, Aβ/Endo rats
[12] = Right Hippocampus, Endothelin rats

Structure (SMILES): S=C(S)N1CCCC1 [PDTC, pyrrolidine dithiocarbamate]
- Effect on Aβ(25-35) induced increases in latency (rats; 100 mg/kg 30 minutes before Aβ(25-35) injections and 7 days post-surgery, trial 15 (day 8) vs trial 14 (day −1)): prevented the Aβ(25-35) induced increases in latency
- test response (latency) vs Aβ(25-35) group with vehicle treatment (rats; Aβ(25-35) group treated with PDTC, P<0.05, not significantly different from sham groups): significantly less

Structure (SMILES): CC(=O)Oc1cc(C(F)(F)F)ccc1C(=O)O [Triflusal]
- Effect of Triflusal on APP immunostaining (Male Wistar rats [1]; Corpus Callosum, Aβ rats): ↓↓
- Effect of Triflusal on COX-2 immunostaining (Male Wistar rats [1]; Corpus Callosum, Aβ rats): ↓↓
- Effect of Triflusal on GFAP immunostaining (Male Wistar rats [1]; Corpus Callosum, Aβ rats): ↓↓
- Effect of Triflusal on NKκB(p65) immunostaining (Male Wistar rats [1]; Corpus Callosum, Aβ rats): ↓↓
- Effect of Triflusal on OX-6 immunostaining (Male Wistar rats [1]; Corpus Callosum, Aβ rats): ↓↓
- Effect of Triflusal on TNFα immunostaining (Male Wistar rats [1]; Corpus Callosum, Aβ rats): ↓↓
- Effect of Triflusal on Tau-2 immunostaining (Male Wistar rats [1]; Corpus Callosum, Aβ rats): ↓↓
- Effect of Triflusal on APP immunostaining (Male Wistar rats [1]; [3]): −
- Effect of Triflusal on COX-2 immunostaining (Male Wistar rats [1]; [3]): ↓
- Effect of Triflusal on GFAP immunostaining (Male Wistar rats [1]; [3]): −
- Effect of Triflusal on NKκB(p65) immunostaining (Male Wistar rats [1]; [3]): ↓
- Effect of Triflusal on OX-6 immunostaining (Male Wistar rats [1]; [3]): ↓
- Effect of Triflusal on TNFα immunostaining (Male Wistar rats [1]; [3]): −
- Effect of Triflusal on Tau-2 immunostaining (Male Wistar rats [1]; [3]): −
- Effect of Triflusal on GFAP immunostaining (Male Wistar rats [1]; Corpus Callosum, Endothelin rats): −
- Effect of Triflusal on APP immunostaining (Male Wistar rats [1]; Cortex, Aβ rats): ↓↓
- Effect of Triflusal on COX-2 immunostaining (Male Wistar rats [1]; Cortex, Aβ rats): ↓↓
- Effect of Triflusal on GFAP immunostaining (Male Wistar rats [1]; Cortex, Aβ rats): −
- Effect of Triflusal on NKκB(p65) immunostaining (Male Wistar rats [1]; Cortex, Aβ rats): ↓
- Effect of Triflusal on OX-6 immunostaining (Male Wistar rats [1]; Cortex, Aβ rats): ↓
- Effect of Triflusal on TNFα immunostaining (Male Wistar rats [1]; Cortex, Aβ rats): ↓
- Effect of Triflusal on Tau-2 immunostaining (Male Wistar rats [1]; Cortex, Aβ rats): ↓↓
- Effect of Triflusal on APP immunostaining (Male Wistar rats [1]; Cortex, Aβ-Endothelin rats): −
- Effect of Triflusal on COX-2 immunostaining (Male Wistar rats [1]; Cortex, Aβ-Endothelin rats): ↓
- Effect of Triflusal on GFAP immunostaining (Male Wistar rats [1]; Cortex, Aβ-Endothelin rats): −
- Effect of Triflusal on NKκB(p65) immunostaining (Male Wistar rats [1]; Cortex, Aβ-Endothelin rats): −
- Effect of Triflusal on OX-6 immunostaining (Male Wistar rats [1]; Cortex, Aβ-Endothelin rats): −
- Effect of Triflusal on TNFα immunostaining (Male Wistar rats [1]; Cortex, Aβ-Endothelin rats): ↓
- Effect of Triflusal on Tau-2 immunostaining (Male Wistar rats [1]; Cortex, Aβ-Endothelin rats): −
- Effect of Triflusal on GFAP immunostaining (Male Wistar rats [1]; Cortex, Endothelin rats): −
- Effect of Triflusal on APP immunostaining (Male Wistar rats [1]; Hippocampus, Aβ rats): ↓
- Effect of Triflusal on COX-2 immunostaining (Male Wistar rats [1]; Hippocampus, Aβ rats): ↓
- Effect of Triflusal on GFAP immunostaining (Male Wistar rats [1]; Hippocampus, Aβ rats): −
- Effect of Triflusal on NKκB(p65) immunostaining (Male Wistar rats [1]; Hippocampus, Aβ rats): ↓
- Effect of Triflusal on OX-6 immunostaining (Male Wistar rats [1]; Hippocampus, Aβ rats): ↓
- Effect of Triflusal on Tau-2 immunostaining (Male Wistar rats [1]; Hippocampus, Aβ rats): ↓
- Effect of Triflusal on APP immunostaining (Male Wistar rats [1]; [4]): −
- Effect of Triflusal on COX-2 immunostaining (Male Wistar rats [1]; [4]): −
- Effect of Triflusal on GFAP immunostaining (Male Wistar rats [1]; [4]): −
- Effect of Triflusal on NKκB(p65) immunostaining (Male Wistar rats [1]; [4]): −
- Effect of Triflusal on OX-6 immunostaining (Male Wistar rats [1]; [4]): −
- Effect of Triflusal on Tau-2 immunostaining (Male Wistar rats [1]; [4]): −
- Effect of Triflusal on GFAP immunostaining (Male Wistar rats [1]; Hippocampus, Endothelin rats): −
- Effect of Triflusal on APP immunostaining (Male Wistar rats [1]; Hypothalamus, Aβ rats): ↓
- Effect of Triflusal on NKκB(p65) immunostaining (Male Wistar rats [1]; Hypothalamus, Aβ rats): ↓↓
- Effect of Triflusal on TNFα immunostaining (Male Wistar rats [1]; Hypothalamus, Aβ rats): ↓↓
- Effect of Triflusal on APP immunostaining (Male Wistar rats [1]; [5]): −
- Effect of Triflusal on NKκB(p65) immunostaining (Male Wistar rats [1]; [5]): ↓
- Effect of Triflusal on TNFα immunostaining (Male Wistar rats [1]; [5]): ↓
- Effect of Triflusal on GFAP immunostaining (Male Wistar rats [1]; Striatum (right), Aβ rats): −
- Effect of Triflusal on APP immunostaining (Male Wistar rats [1]; [6]): ↓
- Effect of Triflusal on COX-2 immunostaining (Male Wistar rats [1]; [6]): ↓
- Effect of Triflusal on GFAP immunostaining (Male Wistar rats [1]; [6]): −
- Effect of Triflusal on NKκB(p65) immunostaining (Male Wistar rats [1]; [6]): ↓
- Effect of Triflusal on OX-6 immunostaining (Male Wistar rats [1]; [6]): ↓
- Effect of Triflusal on TNFα immunostaining (Male Wistar rats [1]; [6]): ↓
- Effect of Triflusal on APP immunostaining (Male Wistar rats [1]; [7]): ↓↓
- Effect of Triflusal on COX-2 immunostaining (Male Wistar rats [1]; [7]): ↓↓
- Effect of Triflusal on Cas-3 immunostaining (Male Wistar rats [1]; [7]): ↓
- Effect of Triflusal on GFAP immunostaining (Male Wistar rats [1]; [7]): −
- Effect of Triflusal on NKκB(p65) immunostaining (Male Wistar rats [1]; [7]): ↓
- Effect of Triflusal on OX-6 immunostaining (Male Wistar rats [1]; [7]): ↓↓
- Effect of Triflusal on TNFα immunostaining (Male Wistar rats [1]; [7]): ↓
- Effect of Triflusal on OX-6 immunostaining (Male Wistar rats [1]; Thalamus (right), Aβ rats): −
- Effect of Triflusal on TNFα immunostaining (Male Wistar rats [1]; Thalamus (right), Aβ rats): −
- Effect of Triflusal on OX-6 immunostaining (Male Wistar rats [1]; [8]): −
- Effect of Triflusal on TNFα immunostaining (Male Wistar rats [1]; [8]): −
- Effect of Triflusal on OX-6 immunostaining (Male Wistar rats [1]; [9]): −
- Effect of Triflusal on TNFα immunostaining (Male Wistar rats [1]; [9]): −
- APP Accumulation (Male Wistar rats [2]; Left Cortex, Aβ rats): (12.5 ± 2.6)^x
- APP Accumulation (Male Wistar rats [2]; Left Cortex, Aβ/Endo rats): 64.5 ± 10.2)
- APP Accumulation (Male Wistar rats [2]; Left Cortex, Endothelin rats): (7.3 ± 1.3)
- APP Accumulation (Male Wistar rats [2]; Left Cortex, Sham rats): (7.3 ± 2.3)
- GFAP Intensity (Male Wistar rats [2]; Left Hippocampus, Aβ rats): (166.8 ± 9.1)
- OX6 Intensity (Male Wistar rats [2]; Left Hippocampus, Aβ rats): (109.8 ± 6.8)^a
- GFAP Intensity (Male Wistar rats [2]; Left Hippocampus, Aβ/Endo rats): (188.9 ± 4.4)
- OX6 Intensity (Male Wistar rats [2]; Left Hippocampus, Aβ/Endo rats): (149.0 ± 7.1)
- GFAP Intensity (Male Wistar rats [2]; [10]): (148.8 ± 4.5)
- OX6 Intensity (Male Wistar rats [2]; [10]): (106.8 ± 6.4)
- GFAP Intensity (Male Wistar rats [2]; Left Hippocampus, Sham rats): (150.8 ± 5.5)
- OX6 Intensity (Male Wistar rats [2]; Left Hippocampus, Sham rats): (97.9 ± 2.0)
- APP Accumulation (Male Wistar rats [2]; Right Cortex, Aβ rats): (11.0 ± 2.1)^x
- APP Accumulation (Male Wistar rats [2]; Right Cortex, Aβ/Endo rats): (85.8 ± 16.1)
- APP Accumulation (Male Wistar rats [2]; Right Cortex, Endothelin rats): (13.3 ± 2.1)
- APP Accumulation (Male Wistar rats [2]; Right Cortex, Sham rats): (5.0 ± 2.7)
- GFAP Intensity (Male Wistar rats [2]; Right Hippocampus, Aβ rats): (164.2 ± 10.1)
- OX6 Intensity (Male Wistar rats [2]; Right Hippocampus, Aβ rats): (110.8 ± 4.6)^x
- GFAP Intensity (Male Wistar rats [2]; [11]): (188.3 ± 8.2)
- OX6 Intensity (Male Wistar rats [2]; [11]): (149.4 ± 7.4)^x
- GFAP Intensity (Male Wistar rats [2]; [12]): (150.1 ± 3.6)^x
- OX6 Intensity (Male Wistar rats [2]; [12]): (97.3 ± 4.5)^x
- GFAP Intensity (Male Wistar rats [2]; Right Hippocampus, Sham rats): (152.5 ± 7.9)
- OX6 Intensity (Male Wistar rats [2]; Right Hippocampus, Sham rats): (93.4 ± 1.4)
